From patent US8420630B2 (Boehringer Ingelheim Pharma GmbH & Co. KG, priority 2001, dated 2013)

Assays:
[1] = target: T1, CDK1/cyclinB1 (Homo sapiens, UniProt P06493); assay: Cyclin B1-CDK1 kinase inhibition test; format: biochemical; conditions: CDK1 tests (Example 13); recombinant cyclin B1/CDK1, substrate histone H1; read-out: CDK1/cyclinB1 IC50 value
T1 construct: made in house; host or cells: High Five insect cells (Trichoplusia ni), baculovirus coinfection
How it was run: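 Baculovirus-expressed CDK1/cyclin B1 phosphorylated histone H1 with ATP mix containing 0.045 mM ATP plus ^33P-ATP for 30 min at 30 °C. Protein was precipitated with TCA and filter-bound radioactivity read by scintillation counting. Olomoucin at 30 and 300 μM final served as internal control.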

[2] = tested on: cell culture; conditions: Ongkeko et al., 1995, J. Cell Sci., 108, 2897; cited from earlier work

T1 sequence (P06493 whole entry): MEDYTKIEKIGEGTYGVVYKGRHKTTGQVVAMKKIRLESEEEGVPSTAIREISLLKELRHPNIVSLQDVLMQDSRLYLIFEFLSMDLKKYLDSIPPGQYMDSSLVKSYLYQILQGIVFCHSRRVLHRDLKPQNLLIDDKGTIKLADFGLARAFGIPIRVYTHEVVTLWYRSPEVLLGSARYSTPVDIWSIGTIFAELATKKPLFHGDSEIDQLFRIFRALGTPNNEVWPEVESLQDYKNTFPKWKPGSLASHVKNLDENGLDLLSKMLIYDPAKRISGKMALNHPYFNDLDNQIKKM
T1 sequence (P14635 whole entry partner): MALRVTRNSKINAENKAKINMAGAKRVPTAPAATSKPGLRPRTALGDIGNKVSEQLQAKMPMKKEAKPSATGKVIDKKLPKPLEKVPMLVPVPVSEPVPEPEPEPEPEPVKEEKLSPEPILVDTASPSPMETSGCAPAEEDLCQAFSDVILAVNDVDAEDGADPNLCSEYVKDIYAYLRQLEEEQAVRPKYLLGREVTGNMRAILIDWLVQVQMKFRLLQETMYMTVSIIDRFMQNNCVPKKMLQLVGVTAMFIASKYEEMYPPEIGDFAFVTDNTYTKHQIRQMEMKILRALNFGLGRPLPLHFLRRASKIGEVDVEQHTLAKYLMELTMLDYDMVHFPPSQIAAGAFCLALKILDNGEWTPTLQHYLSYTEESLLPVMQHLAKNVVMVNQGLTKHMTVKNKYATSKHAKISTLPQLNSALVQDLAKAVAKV

| IC50 [1] [nM] | melting point [°C] | SMILES | effect with cytotoxic substances in cell culture [2] |
| --- | --- | --- | --- |
| < 100 | 222 | CC(=O)NCCNc1nc(Nc2cccc(NC(C)=O)c2)ncc1C(F)(F)F [Example 10(000), N-(2-[2-(3-acetylamino-phenylamino)-5-trifluoromethyl-pyrimidin-4-ylamino]-ethyl)-acetamide] |  |
|  |  | Cn1cnc2c(NCc3ccccc3)nc(NCCO)nc21 [olomoucine] | synergistic effect |
